Source: PMC10123100, “Single-molecule visualization of stalled replication-fork rescue by the Escherichia coli Rep helicase” (Nucleic Acids Research, 2023)

Columns and labels:
[1] = molecular target: T1, Rep helicase (His6-Rep WT) (Escherichia coli, UniProt P09980); experiment: SPR, nucleotide-stimulated dissociation of Rep from immobilised dT35; format: binding; settings: 200 uM ATP, 20 nM Rep, biotinylated dT35, Mg2+, pH 7.6, 20 C
T1 construct: full-length with His6 tag kept, plasmid pZX2198, expressed in E. coli BL21(DE3)/pLysS; monomer, multimer on long ssDNA
T1 sequence (P09980 whole entry): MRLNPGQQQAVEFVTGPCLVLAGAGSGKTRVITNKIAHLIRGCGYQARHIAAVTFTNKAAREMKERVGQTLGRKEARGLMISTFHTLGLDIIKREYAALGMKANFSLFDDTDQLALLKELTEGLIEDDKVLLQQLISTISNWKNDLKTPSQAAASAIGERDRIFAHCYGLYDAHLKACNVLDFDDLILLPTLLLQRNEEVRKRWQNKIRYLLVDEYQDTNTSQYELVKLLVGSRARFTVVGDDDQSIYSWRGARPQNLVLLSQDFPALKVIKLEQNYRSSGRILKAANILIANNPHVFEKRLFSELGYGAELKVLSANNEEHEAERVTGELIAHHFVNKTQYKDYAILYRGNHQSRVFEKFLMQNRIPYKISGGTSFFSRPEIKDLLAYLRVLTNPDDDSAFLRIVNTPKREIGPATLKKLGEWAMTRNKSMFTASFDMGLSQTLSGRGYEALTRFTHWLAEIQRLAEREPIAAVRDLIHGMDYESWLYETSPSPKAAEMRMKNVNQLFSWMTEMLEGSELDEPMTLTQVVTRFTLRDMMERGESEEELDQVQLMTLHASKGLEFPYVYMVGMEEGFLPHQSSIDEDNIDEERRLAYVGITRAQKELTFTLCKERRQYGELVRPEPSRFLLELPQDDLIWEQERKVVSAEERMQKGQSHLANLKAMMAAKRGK

[2] = molecular target: T1, Rep helicase (His6-Rep WT); experiment: as above; format: binding; settings: 200 uM ATP, 20 nM Rep, biotinylated dT35, Mg2+, pH 7.6, 20 C; remark: listed apart in the source

Nc1ncnc2c1ncn2[C@@H]1O[C@H](COP(=O)(O)OP(=O)(O)OP(=O)(O)O)[C@@H](O)[C@H]1O [ATP]
SPR, nucleotide-stimulated dissociation of Rep from immobilised dT35 [1]: ATP, but not ADP or AMP-PNP, stimulated the dissociation of Rep WT and Rep ΔC33
SPR, nucleotide-stimulated dissociation of Rep from immobilised dT35 [2]: ATP, but not ADP or AMP-PNP, stimulated the dissociation of Rep WT and Rep ΔC33
